Assay results from patent US11168086B2, “Methods of synthesizing pyrazine compounds” (Hoffmann-La Roche Inc., priority 2015, dated 2021).

Each compound was assayed on HBV (assay: HBV inhibition assay: anti-HBV activity in vitro in HepG2.2.15 cells (extracellular HBV DNA by qPCR)). Details: Hepatitis B virus, 120 h, five days after compound treatment, extracellular HBV DNA in culture supernatant by qPCR, concentration at which HBV replication is inhibited by 50%.
Format: cell-based
Description: Example 441: HBV Inhibition Assays
Cell Line and Culture Conditions:
HepG2.2.15 is a stably-transfected cell line containing the HBV genome. It is derived from the hepatoblastoma cell line Hep G2 (American Type Culture Collection, ATCC® HB-8065™) by the published procedures described in reference: MA Selles et al. Proc. Natl. Acad. Sci. USA 1987, 84, 1005-1009. The cell line was maintained in Dulbecco's modified Eagle's medium (DMEM)-F12 medium supplemented with 10% fetal bovine serum, 100 U/mL penicillin, 100 μg/mL streptomycin, and 0.5 mg/mL of G418.
Anti-HBV Activity In Vitro:
HepG2.2.15 cells were seeded into 96-well plates (3×10^4 cells in 100 μL media per well) and incubated overnight at 37° C. The test compounds were serially half-log diluted in DMSO, then diluted 100 times in culture media. 100 μL diluted compounds were added into the plates to reach 0.5% final concentration of DMSO in every well. Five days after compound treatment, culture supernatant was collected for further analysis.
For quantitative PCR detection of extracellular HBV DNA, culture supernatant was processed by Proteinase K digestion. After heat inactivation of the enzyme, the samples were subjected to HBV DNA quantification by qPCR. The effective compound concentration at which
HBV replication is inhibited by 50% (EC50) was determined.

SMILES	EC50 [nM]
C[C@H]1Cn2ncc(N3CC(c4ccncc4)CC3=O)c2CN1C(=O)Nc1cc(F)c(F)c(F)c1 (stereo partly drawn) [Example 354, (6S)-6-methyl-3-[2-oxo-4-(4-pyridyl)pyrrolidin-1-yl]-N-(3,4,5-trifluorophenyl)-6,7-dihydro-4H-pyrazolo[1,5-a]pyrazine-5-carboxamide]	13
CC1Cn2ncc(-c3ccc(F)cc3F)c2CN1C(=O)Nc1ccnc(C(F)F)c1 (stereo not drawn) [Example 218, N-[2-(difluoromethyl)-4-pyridyl]-3-(2,4-difluorophenyl)-6-methyl-6,7-dihydro-4H-pyrazolo[1,5-a]pyrazine-5-carboxamide]	14
C[C@H]1Cn2ncc(N3CC(N(C)c4ncccn4)CC3=O)c2CN1C(=O)Nc1cc(F)c(F)c(F)c1 (stereo partly drawn) [Example 363, (6S)-6-methyl-3-[4-[methyl(pyrimidin-2-yl)amino]-2-oxo-pyrrolidin-1-yl]-N-(3,4,5-trifluorophenyl)-6,7-dihydro-4H-pyrazolo[1,5-a]pyrazine-5-carboxamide]	9
C[C@H]1Cn2ncc(N3CC(C(=O)N(C)c4ncco4)CC3=O)c2CN1C(=O)Nc1cc(F)c(F)c(F)c1 (stereo partly drawn) [Example 399, (6S)-6-methyl-3-[4-[methyl(oxazol-2-yl)carbamoyl]-2-oxo-pyrrolidin-1-yl]-N-(3,4,5-trifluorophenyl)-6,7-dihydro-4H-pyrazolo[1,5-a]pyrazine-5-carboxamide]	19
CC1CC(=O)N(c2cnn3c2CN(C(=O)Nc2ccc(F)c(Cl)c2)[C@@H](C)C3)C1 (stereo partly drawn) [Example 254, (6S)—N-(3-chloro-4-fluoro-phenyl)-6-methyl-3-(4-methyl-2-oxo-pyrrolidin-1-yl)-6,7-dihydro-4H-pyrazolo[1,5-a]pyrazine-5-carboxamide]	39
CC1Cn2ncc(-c3ccc(F)cc3F)c2CN1C(=O)Nc1ccc(F)c(Cl)c1 (stereo not drawn) [Example 92, N-(3-chloro-4-fluoro-phenyl)-3-(2,4-difluorophenyl)-6-methyl-6,7-dihydro-4H-pyrazolo[1,5-a]pyrazine-5-carboxamide]	13
CO[C@H]1CC(=O)N(c2cnn3c2CN(C(=O)Nc2cc(F)c(F)c(F)c2)[C@@H](C)C3)C1 [Example 378, (6S)-3-[(4S)-4-methoxy-2-oxo-pyrrolidin-1-yl]-6-methyl-N-(3,4,5-trifluorophenyl)-6,7-dihydro-4H-pyrazolo[1,5-a]pyrazine-5-carboxamide]	28
C[C@H]1CN(C(=O)C2CC(=O)N(c3cnn4c3CN(C(=O)Nc3cc(F)c(F)c(F)c3)[C@@H](C)C4)C2)CCO1 (stereo partly drawn) [Example 395, (6S)-6-methyl-3-[4-[(2S)-2-methylmorpholine-4-carbonyl]-2-oxo-pyrrolidin-1-yl]-N-(3,4,5-trifluorophenyl)-6,7-dihydro-4H-pyrazolo[1,5-a]pyrazine-5-carboxamide]	88
COCC1CC(=O)N(c2cnn3c2CN(C(=O)Nc2cc(F)c(F)c(F)c2)[C@@H](C)C3)C1 (stereo partly drawn) [Example 299, (6S)-3-[4-(methoxymethyl)-2-oxo-pyrrolidin-1-yl]-6-methyl-N-(3,4,5-trifluorophenyl)-6,7-dihydro-4H-pyrazolo[1,5-a]pyrazine-5-carboxamide]	80
C[C@H]1Cn2ncc(N3CC(c4ccc(Cl)nc4)OC3=O)c2CN1C(=O)Nc1cc(F)c(F)c(F)c1 (stereo partly drawn) [Example 409, (6S)-3-[5-(6-chloro-3-pyridyl)-2-oxo-oxazolidin-3-yl]-6-methyl-N-(3,4,5-trifluorophenyl)-6,7-dihydro-4H-pyrazolo[1,5-a]pyrazine-5-carboxamide]	16
C[C@H]1Cn2ncc(N3CC(C)(C)CC3=O)c2CN1C(=O)Nc1ccc(F)c(Cl)c1 [Example 257, (6S)—N-(3-chloro-4-fluoro-phenyl)-3-(4,4-dimethyl-2-oxo-pyrrolidin-1-yl)-6-methyl-6,7-dihydro-4H-pyrazolo[1,5-a]pyrazine-5-carboxamide]	15
C[C@H]1Cn2ncc(N3CC(C(=O)N(C)C)CC3=O)c2CN1C(=O)Nc1cc(F)c(F)c(F)c1 (stereo partly drawn) [Example 390, (6S)-3-[4-(dimethylcarbamoyl)-2-oxo-pyrrolidin-1-yl]-6-methyl-N-(3,4,5-trifluorophenyl)-6,7-dihydro-4H-pyrazolo[1,5-a]pyrazine-5-carboxamide]	103
C[C@H]1Cn2ncc(N3CC(C(=O)N4CCOC(C)(C)C4)CC3=O)c2CN1C(=O)Nc1cc(F)c(F)c(F)c1 (stereo partly drawn) [Example 393, (6S)-3-[4-(2,2-dimethylmorpholine-4-carbonyl)-2-oxo-pyrrolidin-1-yl]-6-methyl-N-(3,4,5-trifluorophenyl)-6,7-dihydro-4H-pyrazolo[1,5-a]pyrazine-5-carboxamide]	70
Cc1nc(C2CC(=O)N(c3cnn4c3CN(C(=O)Nc3cc(F)c(F)c(F)c3)[C@@H](C)C4)C2)co1 (stereo partly drawn) [Example 350, (6S)-6-methyl-3-[4-(2-methyloxazol-4-yl)-2-oxo-pyrrolidin-1-yl]-N-(3,4,5-trifluorophenyl)-6,7-dihydro-4H-pyrazolo[1,5-a]pyrazine-5-carboxamide]	15
Cc1nc(C2CC(=O)N(c3cnn4c3CN(C(=O)Nc3cc(F)c(F)c(F)c3)[C@@H](C)C4)C2)no1 (stereo partly drawn) [Example 285, (6S)-6-methyl-3-[4-(5-methyl-1,2,4-oxadiazol-3-yl)-2-oxo-pyrrolidin-1-yl]-N-(3,4,5-trifluorophenyl)-6,7-dihydro-4H-pyrazolo[1,5-a]pyrazine-5-carboxamide]	7
C[C@H]1Cn2ncc(N3CC(C)(C)OC3=O)c2CN1C(=O)Nc1cc(F)c(F)c(F)c1 [Example 250, (6S)-3-(5,5-dimethyl-2-oxo-oxazolidin-3-yl)-6-methyl-N-(3,4,5-trifluorophenyl)-6,7-dihydro-4H-pyrazolo[1,5-a]pyrazine-5-carboxamide]	21
Cc1nc(C2(C)CC(=O)N(c3cnn4c3CN(C(=O)Nc3cc(F)c(F)c(F)c3)[C@@H](C)C4)C2)no1 (stereo partly drawn) [Example 406, (6S)-6-methyl-3-[4-methyl-4-(5-methyl-1,2,4-oxadiazol-3-yl)-2-oxo-pyrrolidin-1-yl]-N-(3,4,5-trifluorophenyl)-6,7-dihydro-4H-pyrazolo[1,5-a]pyrazine-5-carboxamide]	6
O=C(Nc1ccc(F)c(Cl)c1)N1CCn2ncc(N3CCCC3=O)c2C1 [Example 170, N-(3-chloro-4-fluoro-phenyl)-3-(2-oxopyrrolidin-1-yl)-6,7-dihydro-4H-pyrazolo[1,5-a]pyrazine-5-carboxamide]	46
C[C@H]1Cn2ncc(N3CCOCC3=O)c2CN1C(=O)Nc1ccc(F)c(Cl)c1 [Example 364, (6S)—N-(3-chloro-4-fluoro-phenyl)-6-methyl-3-(3-oxomorpholin-4-yl)-6,7-dihydro-4H-pyrazolo[1,5-a]pyrazine-5-carboxamide]	28
C[C@H]1Cn2ncc(N3CC(C)(c4nnco4)CC3=O)c2CN1C(=O)Nc1cc(F)c(F)c(F)c1 (stereo partly drawn) [Example 404, (6S)-6-methyl-3-[4-methyl-4-(1,3,4-oxadiazol-2-yl)-2-oxo-pyrrolidin-1-yl]-N-(3,4,5-trifluorophenyl)-6,7-dihydro-4H-pyrazolo[1,5-a]pyrazine-5-carboxamide]	42
CC1CN(c2cnn3c2CN(C(=O)Nc2cc(F)c(F)c(F)c2)[C@@H](C)C3)C(=O)CO1 (stereo partly drawn) [Example 243, (6S)-6-methyl-3-(2-methyl-5-oxo-morpholin-4-yl)-N-(3,4,5-trifluorophenyl)-6,7-dihydro-4H-pyrazolo[1,5-a]pyrazine-5-carboxamide]	31
N#Cc1cc(NC(=O)N2CCn3ncc(C4CCCC4)c3C2)ccc1F [Example 79, N-(3-cyano-4-fluoro-phenyl)-3-cyclopentyl-6,7-dihydro-4H-pyrazolo[1,5-a]pyrazine-5-carboxamide]	28
O=C(Nc1ccc(F)c(Cl)c1)N1CCn2cnc(-c3ccc(F)cc3F)c2C1 [Example 135, N-(3-chloro-4-fluoro-phenyl)-1-(2,4-difluorophenyl)-6,8-dihydro-5H-imidazo[1,5-a]pyrazine-7-carboxamide]	23
C[C@H]1Cn2ncc(N3C[C@H](Oc4ncccn4)CC3=O)c2CN1C(=O)Nc1cc(F)c(F)c(F)c1 [Example 415, (6S)-6-methyl-3-[(4R)-2-oxo-4-pyrimidin-2-yloxy-pyrrolidin-1-yl]-N-(3,4,5-trifluorophenyl)-6,7-dihydro-4H-pyrazolo[1,5-a]pyrazine-5-carboxamide]	25
C[C@H]1Cn2ncc(N3CC(C(F)(F)F)CC3=O)c2CN1C(=O)Nc1ccc(F)c(Cl)c1 (stereo partly drawn) [Example 255, (6S)—N-(3-chloro-4-fluoro-phenyl)-6-methyl-3-[2-oxo-4-(trifluoromethyl)pyrrolidin-1-yl]-6,7-dihydro-4H-pyrazolo[1,5-a]pyrazine-5-carboxamide]	28
C[C@@H]1[C@H](C)N(C(=O)Nc2cc(F)c(F)c(F)c2)Cc2c(N3CCCC3=O)cnn21 [Example 261, (6S,7R)-6,7-dimethyl-3-(2-oxopyrrolidin-1-yl)-N-(3,4,5-trifluorophenyl)-6,7-dihydro-4H-pyrazolo[1,5-a]pyrazine-5-carboxamide]	40

Same assay, conditions: five days after compound treatment, extracellular HBV DNA in culture supernatant by qPCR, concentration at which HBV replication is inhibited by 50%

SMILES	EC50 [nM]
CC1C(C#N)CC(=O)N1c1cnn2c1CN(C(=O)Nc1cc(F)c(F)c(F)c1)[C@@H](C)C2 (single isomer, unassigned) [Example 420-1]	27
